Holding throughout (format): cell-based
Assay [1] has as its system CD117-negative control cells (U937). As to the kind of experiment: Apoptosis assay, Annexin V staining, flow cytometry. The note with it: 10 nM MTX payload or equal molar. As for the experimental part:
(§1) Treated cells also were investigated by apoptosis assay. Annexin V-APC staining (BD Biosciences, San Jose, Calif.) was performed according to the manufacturer's instructions. The cell samples were analyzed using a FACS caliber (BD Biociences, San Jose, Calif., USA) flow cytometry equipped with cellquest software.
On the technique in general: A flow cytometer gives signals particle by particle.

Assay [2] relates to HEL cells. Described as above. The note with it: 10 nM MTX payload or equal molar. As to the method:
as §1

Assay [3] relates to CD117-negative control cells (U937). Description: Cell growth inhibition by MTT assay. As to the method:
(§2) Cell growth inhibition was monitored by MTT (MTT (3-[4,5-dimethylthiazol-2-yl]-2,5-diphenyltetrazolium bromide) assay post treatment. Cells (5000) were treated by CD117 Apt-MTX or equal molar free MTX in RPMI 1640 medium for 2 h. After replacement with fresh medium containing 10% serum, cells were cultured for an additional 48 hours and then 10 μl of MTT solution (5 mg/mL in PBS) were added to each well. After a further 4 h of incubation, the culture medium was removed and the formazan crystals in the cells were solubilized with 100 μl of DMSO for 15 minutes. The UV absorbance at 570 nm was measured with a microplate reader.

The test system of assay [4] is AML cells (HEL). Description: Cell growth inhibition by MTT assay. As to the method:
as §2
For orientation: Tetrazolium dyes change colour on reduction, which living cells bring about.

On to `CN(Cc1cnc2nc(N)nc(N)c2n1)c1ccc(C(=O)N[C@@H](CCC(=O)O)C(=O)O)cc1` [free MTX, Methotrexate], for which the “cell apoptosis / toxicity” value in assay [1] is “minimal effect on both HEL and control cells”. In addition, in assay [2], the cell apoptosis result was “minimal effect on both HEL and control cells”. Also, the “effect on cell proliferation (in words)” value in assay [3] (U937, 10 nM MTX, treated 2 hours, cultured 48 hr) was “minimal effect on both cells”; in assay [4] (equal molar (10 nM MTX), treated 2 hours, cultured 48 hr), “minimal effect on both cells”. Besides, the inhibition result is given as “about 30%” in assay [3] (U937, 100 nM final concentration) and “about 30%” in assay [4] (100 nM final concentration).

The values above are taken from US10683506B2, “CD117 ligand-drug conjugates for targeted cancer therapy” (THE METHODIST HOSPITAL SYSTEM, priority 2015, dated 2020).
